Laboratory results: patent US6589758B1, “Crystal of a kinase-ligand complex and methods of use” (priority 2000, dated 2003)
Like-named read-outs stand apart in the source and are kept apart here.

How the values were obtained:
[1] = tested on: TCR-induced IL-2 secretion from hPBL T-cells; assay: T-cell activation: TCR-induced IL-2 secretion from hPBL T-cells (ELISA); assay type: cell-based; settings: anti-CD3/anti-CD28 stimulation, 20 hours, FIG. 7B, read-out: IC50 inhibition of IL-2 production in human T-cell cultures
Protocol: T-cell activation. Whole blood was obtained from normal donors and human peripheral blood lymphocytes (hPBL) were isolated by ficol-hypaque density centrifugation. T-cells were then purified from the hPBL by negative selection using an R&D column following the manufacturers directions (R&D Systems, Minneapolis, Minn.). A 96-well flat-bottomed plate was coated with 10 μg/ml of goat anti-mouse (GAM)-IgG1 (Caltag, Burlingame, Calif.) in PBS overnight at 4C. The GAM-coated plate was flicked out and anti-CD3 mAb (UCHT-1, Coulter/Immunotech, Miami, Fla.) is added at 0.2 μg/ml in AIMV medium (Gibco, Grand Island, N.Y.) for 3 hr. at 37C. Purified T-cells were pre-incubated at 1×10^5/well in AIM V with or without compound for 30 minutes then transferred to the anti-CD3 capture plate. Finally, anti-CD28 (Pharmingen, San Diego, Calif.) in AIMV (150 ng/ml final) was added to each well. Cells were incubated for 20 hours at 37C in 5% CO2 then supernatants were tested by ELISA for cytokine levels (Endogen, Woburn, Mass.).

[2] = tested on: TCR-induced phosphotyrosine incorporation into TCR p23 ζ-chain and a 70 kDa protein, Jurkat cells; assay type: cell-based; settings: FIG. 7C
Protocol: Phosphotyrosine western blotting. […] Cells were then transferred to 37° C. water bath for 1 minute. Stimulation was stopped by the addition of 5 volumes of cold PBS containing 200 μM sodium orthovanadate. Cells were spun down and lysed in 150 mM Tris/10 mM HEPES buffer, pH 7.3, containing 1% Triton X-100 and Complete protease inhibitor cocktail (Boehringer Mannheim, Germany) for 30 minutes on ice. […] Blots were probed with anti-phosphotyrosine (4G10, Upstate Biotechnology, Inc., Saranac Lake, N.Y.) and developed using ECL-plus following the manufacturers directions (Amersham, Arlington Heights, Ill.).

ZAP-70 = molecular target: T1, ZAP-70 (Homo sapiens, UniProt P43403); settings: reported in ref [51]; read-out: IC50 against ZAP-70; cited from earlier work
T1 sequence (P43403 1-619): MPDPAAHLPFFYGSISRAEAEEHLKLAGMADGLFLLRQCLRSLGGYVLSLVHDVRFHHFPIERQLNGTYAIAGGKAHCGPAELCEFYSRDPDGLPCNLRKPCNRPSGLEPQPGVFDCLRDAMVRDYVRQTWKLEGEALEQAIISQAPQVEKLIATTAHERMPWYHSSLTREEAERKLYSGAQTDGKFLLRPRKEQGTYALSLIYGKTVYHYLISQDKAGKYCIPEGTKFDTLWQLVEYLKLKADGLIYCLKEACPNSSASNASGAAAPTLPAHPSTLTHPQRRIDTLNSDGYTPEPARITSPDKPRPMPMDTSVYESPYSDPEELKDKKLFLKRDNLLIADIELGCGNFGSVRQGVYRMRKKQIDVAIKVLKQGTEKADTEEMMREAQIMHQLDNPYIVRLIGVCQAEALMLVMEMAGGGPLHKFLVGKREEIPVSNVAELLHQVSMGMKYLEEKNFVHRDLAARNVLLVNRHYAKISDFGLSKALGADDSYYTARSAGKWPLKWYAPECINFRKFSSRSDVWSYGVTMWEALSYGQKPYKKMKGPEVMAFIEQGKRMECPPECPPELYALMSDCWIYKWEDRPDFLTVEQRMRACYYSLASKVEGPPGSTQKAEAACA

Lck = Lck (Homo sapiens, UniProt P06239); settings: reported in ref [51]; cited from earlier work
Lck, sequence (P06239 whole entry, species assumed): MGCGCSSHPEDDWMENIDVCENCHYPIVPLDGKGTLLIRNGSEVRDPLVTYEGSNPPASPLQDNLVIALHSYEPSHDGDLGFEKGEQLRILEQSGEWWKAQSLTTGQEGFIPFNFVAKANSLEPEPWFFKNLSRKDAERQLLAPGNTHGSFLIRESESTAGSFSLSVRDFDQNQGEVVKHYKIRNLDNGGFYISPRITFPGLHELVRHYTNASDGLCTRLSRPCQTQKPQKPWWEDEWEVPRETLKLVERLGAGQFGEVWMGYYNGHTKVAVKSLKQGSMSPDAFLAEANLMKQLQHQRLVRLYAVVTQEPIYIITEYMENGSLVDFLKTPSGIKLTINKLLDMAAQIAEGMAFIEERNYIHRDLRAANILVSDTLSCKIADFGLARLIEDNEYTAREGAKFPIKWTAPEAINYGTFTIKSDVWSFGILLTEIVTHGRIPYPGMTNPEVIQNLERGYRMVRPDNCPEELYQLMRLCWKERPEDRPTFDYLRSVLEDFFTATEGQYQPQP

With CN[C@@H]1C[C@H]2O[C@@](C)([C@@H]1OC)n1c3ccccc3c3c4c(c5c6ccccc6n2c5c31)C(=O)NC4 [staurosporine] as the compound, how does the IC50 ([1]; Homo sapiens, T-cell) read?
Its IC50 is 60 nM.

For CC(C)(C)n1nc(-c2ccc(Cl)cc2)c2c(N)ncnc21 [PP2], which “inhibition of Lck-dependent phosphorylation of the TCR ζ-chain (p23)” value [2] is on record?
Its value is “dose-dependent inhibition”.

What about the “inhibition of phosphorylation of a 70 kD protein (likely ZAP-70)” value [2] of the same compound?
The value was “inhibited”.

And the IC50 [1]?
The IC50 was 600 nM.

And the IC50 (ZAP-70)?
The IC50 was ≥ 100000 nM.

For Cc1ccc(-c2nn(C(C)(C)C)c3ncnc(N)c23)cc1 [PP1], which “inhibitory activity against Lck compared with PP2” value (Lck) is on record?
Its value is “approximately the same inhibitory activity”.
